Assay results from US20110230493A1, “1-OXA-8-Azaspiro [4,5] Decabe-8-Carboxamide Compounds as FAAH Inhibitors” (Pfizer Inc., priority 2008, published 2011).
Marks after values point to notes of the source that are not given here.

Legend:
[1] = molecular target: T1, human FAAH (Homo sapiens, UniProt O00519); assay: FAAH assay, human FAAH enzyme inactivation (kinact/Ki); type: biochemical; details: oleamide 50 μM, 30° C.; for kinact/KI: pH 7.4, in vitro, read-out: hFAAH kinact/Ki; for hFAAH kinact/Ki: in vitro, pH 7.4
T1 construct: made in house; host or cells: E. coli
T1 sequence (O00519 1-579): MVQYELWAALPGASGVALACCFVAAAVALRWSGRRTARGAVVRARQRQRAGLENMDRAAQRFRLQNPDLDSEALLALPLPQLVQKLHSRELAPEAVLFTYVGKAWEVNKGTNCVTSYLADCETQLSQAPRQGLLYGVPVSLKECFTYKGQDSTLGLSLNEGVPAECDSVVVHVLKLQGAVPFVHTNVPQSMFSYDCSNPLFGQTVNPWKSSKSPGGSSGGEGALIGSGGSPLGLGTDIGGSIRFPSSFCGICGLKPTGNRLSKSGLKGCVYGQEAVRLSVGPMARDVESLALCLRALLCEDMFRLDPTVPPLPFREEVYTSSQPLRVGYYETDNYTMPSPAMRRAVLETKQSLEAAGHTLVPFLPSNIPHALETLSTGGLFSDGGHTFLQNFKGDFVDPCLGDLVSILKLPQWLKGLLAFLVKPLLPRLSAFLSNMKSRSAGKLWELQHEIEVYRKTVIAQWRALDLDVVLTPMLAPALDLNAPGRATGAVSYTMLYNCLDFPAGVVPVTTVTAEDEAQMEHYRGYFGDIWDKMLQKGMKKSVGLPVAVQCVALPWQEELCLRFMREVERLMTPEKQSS
Method in brief: (§1)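 Oleamide hydrolysis by 1-4 nM purified E. coli-expressed FAAH (substrate 50 μM = Km) coupled to GDH/NADH, pH 7.4 phosphate, 7.5% DMSO and EtOH, 30° C; A340 followed 90 min. kobs from mono-exponential fits; kinact/Ki from kobs-versus-concentration slope, multiplied by two.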

[2] = molecular target: T2, rat FAAH (Rattus norvegicus, UniProt P97612); assay: FAAH assay, rat FAAH enzyme inactivation (kinact/Ki); type: biochemical; details: oleamide 50 μM, 30° C.; for kinact/KI: pH 7.4, in vitro, read-out: rFAAH kinact/Ki; for rFAAH kinact/Ki: in vitro, pH 7.4
T2 construct: made in house; host or cells: E. coli
T2 sequence (P97612 1-579): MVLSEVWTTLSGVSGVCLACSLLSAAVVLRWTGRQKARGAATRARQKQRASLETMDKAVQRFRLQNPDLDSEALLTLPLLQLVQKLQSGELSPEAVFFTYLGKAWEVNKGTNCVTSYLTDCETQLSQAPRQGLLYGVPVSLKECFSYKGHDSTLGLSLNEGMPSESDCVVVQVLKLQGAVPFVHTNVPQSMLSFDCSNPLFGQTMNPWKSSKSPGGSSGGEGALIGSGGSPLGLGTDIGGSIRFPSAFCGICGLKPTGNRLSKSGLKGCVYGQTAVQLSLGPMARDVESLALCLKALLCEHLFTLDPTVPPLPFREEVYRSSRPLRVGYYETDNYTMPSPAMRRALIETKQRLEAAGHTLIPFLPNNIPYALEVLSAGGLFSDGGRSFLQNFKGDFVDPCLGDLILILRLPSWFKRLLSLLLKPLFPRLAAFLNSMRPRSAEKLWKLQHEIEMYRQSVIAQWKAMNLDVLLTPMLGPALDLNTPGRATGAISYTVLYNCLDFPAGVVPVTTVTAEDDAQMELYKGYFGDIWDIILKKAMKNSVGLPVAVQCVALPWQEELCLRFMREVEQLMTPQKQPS
Method in brief: as §1

[3] = test system: Male Sprague-Dawley Rats; assay: In vivo Complete Freund's Adjuvant (CFA) efficacy assay, inhibition of allodynia; design: species or system rat; key: (+) indicates the test compound was determined to be efficacious at 3 mpk, oral dosing; (−) indicates the test compound was determined to not be efficacious at 3 mpk, oral dosing; details: p < 0.05 vs vehicle group
Method in brief: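 Adult male Sprague-Dawley rats weighing 200 g-250 g received an intra-plantar injection of 150 uL Complete Freund's Adjuvant into the left hindpaw to induce inflammation. On day 4 after injection, baseline paw withdrawal threshold was measured with Von Frey hairs using the Dixon Up and Down method. Threshold was measured again at four hours postdose. Treatment groups were compared by ANOVA with Dunnett's two-tailed test.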

[4] = 3 mpk, oral dosing, PWT four hours postdose

kinact/KI [1] [M⁻¹ s⁻¹]	kinact/KI [2] [M⁻¹ s⁻¹]	hFAAH kinact/Ki [1] [M⁻¹ s⁻¹]	rFAAH kinact/Ki [2] [M⁻¹ s⁻¹]	SMILES	CFA Efficacy [3, 4]	CFA Efficacy ([3]; 10 mpk, intraperitoneal dosing)	CFA Efficacy ([3]; 25 mpk, intraperitoneal dosing)
16900	1830	–	–	Cn1nnnc1NC(=O)N1CCC2(CC1)C[C@H](c1cccc(-c3ccc(OC(F)(F)F)cc3)c1)CO2 [Example 97, (3R)—N-(1-methyl-1H-tetrazol-5-yl)-3-[4′-(trifluoromethoxy)biphenyl-3-yl]-1-oxa-8-azaspiro[4.5]decane-8-carboxamide]	(+)	–	–
5110	1500	–	–	Cn1nnnc1NC(=O)N1CCC2(CC1)CC(c1noc(-c3ccc(C(F)(F)F)cc3)n1)CO2 (single isomer, unassigned) [Example 82, N-(1-methyl-1H-tetrazol-5-yl)-3-{5-[4-(trifluoromethyl)phenyl]-1,2,4-oxadiazol-3-yl}-1-oxa-8-azaspiro[4.5]decane-8-carboxamide]	(+)	–	–
4600	2160	–	–	Cn1nnnc1NC(=O)N1CCC2(CC1)CC(c1cccc(C(F)(F)F)c1)CO2 (single isomer, unassigned) [Example 93, N-(1-methyl-1H-tetrazol-5-yl)-3-[3-(trifluoromethyl)phenyl]-1-oxa-8-azaspiro[4.5]decane-8-carboxamide]	(+)	–	–
–	–	11400	5520	Cn1nnnc1NC(=O)N1CCC2(CC1)CC(c1cccc(Cl)c1)CO2 (single isomer, unassigned) [Example 80, 3-(3-chlorophenyl)-N-(1-methyl-1H-tetrazol-5-yl)-1-oxa-8-azaspiro[4.5]decane-8-carboxamide]	(+)	–	–
21200	7500	–	–	Cn1nnnc1NC(=O)N1CCC2(CC1)C[C@@H](c1ccc(OCc3ccc(F)cc3)cc1)CO2 [Example 91, (3S)-3-{4-[(4-fluorobenzyl)oxy]phenyl}-N-(1-methyl-1H-tetrazol-5-yl)-1-oxa-8-azaspiro[4.5]decane-8-carboxamide]	(+)	–	–
–	–	3760	2110	Cn1nnnc1NC(=O)N1CCC2(CC1)CC(c1cccc(C(F)(F)F)c1)CO2 (single isomer, unassigned) [Example 94, N-(1-methyl-1H-tetrazol-5-yl)-3-[3-(trifluoromethyl)phenyl]-1-oxa-8-azaspiro[4.5]decane-8-carboxamid]	(+)	–	–
8420	1500	–	–	Cn1nnnc1NC(=O)N1CCC2(CC1)CC(c1noc(-c3ccc(OC(F)(F)F)cc3)n1)CO2 (single isomer, unassigned) [Example 84, N-(1-methyl-1H-tetrazol-5-yl)-3-{5-[4-(trifluoromethoxy)phenyl]-1,2,4-oxadiazol-3-yl}-1-oxa-8-azaspiro[4.5]decane-8-carboxamide]	(+)	–	–
3130	1880	–	–	O=C(Nc1cccnn1)N1CCC2(CC1)CC(c1cccc(Oc3ccc(C(F)(F)F)cn3)c1)CO2 (racemic) [Example 1, (3RS)—N-pyridazin-3-yl-3-(3-{[5-(trifluoromethyl)pyridin-2-yl]oxy}phenyl)-1-oxa-8-azaspiro[4.5]decane-8-carboxamide]	–	–	(+)^d
7110	4560	–	–	Cn1nnnc1NC(=O)N1CCC2(CC1)CC(c1cccc(OC(F)(F)F)c1)CO2 (single isomer, unassigned) [Example 77, N-(1-methyl-1H-tetrazol-5-yl)-3-[3-(trifluoromethoxy)phenyl]-1-oxa-8-azaspiro[4.5]decane-8-carboxamide]	(+)	–	–
–	–	5980	1340	Cn1nnnc1NC(=O)N1CCC2(CC1)CC(c1noc(-c3ccc(OC(F)(F)F)cc3)n1)CO2 (single isomer, unassigned) [Example 85, N-(1-methyl-1H-tetrazol-5-yl)-3-{5-[4-(trifluoromethoxy)phenyl]-1,2,4-oxadiazol-3-yl}-1-oxa-8-azaspiro[4.5]decane-8-carboxamide]	(+)	–	–
–	–	7100	3840	Cn1nnnc1NC(=O)N1CCC2(CC1)CC(c1cccc(OC(F)(F)F)c1)CO2 (single isomer, unassigned) [Example 78, N-(1-methyl-1H-tetrazol-5-yl)-3-[3-(trifluoromethoxy)phenyl]-1-oxa-8-azaspiro[4.5]decane-8-carboxamide]	(+)	–	–

Further lines, the molecule ahead of its results:

SMILES	kinact/KI [1] [M⁻¹ s⁻¹]	kinact/KI [2] [M⁻¹ s⁻¹]	hFAAH kinact/Ki [1] [M⁻¹ s⁻¹]	rFAAH kinact/Ki [2] [M⁻¹ s⁻¹]	CFA Efficacy [3, 4]	CFA Efficacy ([3]; 10 mpk, intraperitoneal dosing)	CFA Efficacy ([3]; 25 mpk, intraperitoneal dosing)
O=C(Nc1cccnn1)N1CCC2(CC1)C[C@@H](c1cccc(Oc3ccc(C(F)(F)F)cn3)c1)CO2 [Example 2, (3S)—N-pyridazin-3-yl-3-(3-{[5-(trifluoromethyl)pyridin-2-yl]oxy}phenyl)-1-oxa-8-azaspiro[4.5]decane-8-carboxamide]	1340	1130	–	–	–	(−)^c	–
Cc1noc(NC(=O)N2CCC3(CC2)C[C@H](c2ccc(OCc4ccc(F)cc4)cc2)CO3)c1C [Example 41, (3R)—N-(3,4-dimethylisoxazol-5-yl)-3-{4-[(4-fluorobenzyl)oxy]phenyl}-1-oxa-8-azaspiro[4.5]decane-8-carboxamide]	12500	15800	–	–	(+)	–	–
Cc1noc(NC(=O)N2CCC3(CC2)CC(c2noc(-c4ccc(C(F)(F)F)cc4)n2)CO3)c1C (single isomer, unassigned) [Example 75, N-(3,4-dimethylisoxazol-5-yl)-3-{5-[4-(trifluoromethyl)phenyl]-1,2,4-oxadiazol-3-yl}-1-oxa-8-azaspiro[4.5]decane-8-carboxamide]	3570	1610	–	–	(+)	–	–
Cc1noc(NC(=O)N2CCC3(CC2)C[C@@H](c2ccc(OCc4ccc(F)cc4)cc2)CO3)c1C [Example 42, (3S)—N-(3,4-dimethylisoxazol-5-yl)-3-{4-[(4-fluorobenzyl)oxy]phenyl}-1-oxa-8-azaspiro[4.5]decane-8-carboxamide]	5590	5320	–	–	(+)	–	–
O=C(Nc1cccnn1)N1CCC2(CC1)C[C@@H](c1cccc(Oc3ccc(Br)cn3)c1)CO2 [Example 10, (3S)-3-{3-[(5-bromopyridin-2-yl)oxy]phenyl}-N-pyridazin-3-yl-1-oxa-8-azaspiro[4.5]decane-8-carboxamide]	2690	5890	–	–	(+)	–	–
Cc1noc(NC(=O)N2CCC3(CC2)C[C@@H](c2cccc(-c4ccc(OC(F)(F)F)cc4)c2)CO3)c1C [Example 63, (3S)—N-(3,4-dimethylisoxazol-5-yl)-3-[4′-(trifluoromethoxy)biphenyl-3-yl]-1-oxa-8-azaspiro[4.5]decane-8-carboxamide]	2350	2160	–	–	(+)	–	–
Cc1noc(NC(=O)N2CCC3(CC2)CC(c2noc(-c4ccc(OC(F)(F)F)cc4)n2)CO3)c1C (single isomer, unassigned) [Example 72, N-(3,4-dimethylisoxazol-5-yl)-3-{5-[4-(trifluoromethoxy)phenyl]-1,2,4-oxadiazol-3-yl}-1-oxa-8-azaspiro[4.5]decane-8-carboxamide]	4250	1500	–	–	(+)	–	–
